Literature values, collected in patent US20250255845A1, “USE OF INTERLEUKIN (IL)-17A INHIBITOR IN PREPARATION OF MEDICAMENT FOR TREATING INFLAMMATORY DISEASE” (Xiangnan University, priority 2024, published 2025).

Tested on: endothelial cells
Settings: CN101947215A; cited from earlier work

| Compound | proliferation of endothelial cells / angiogenesis |
| --- | --- |
| COc1ccc(-c2cc(=O)c3c(OC)c(OC)c(OC)c(OC)c3o2)cc1OC [nobiletin] | inhibit the proliferation of endothelial cells |
| COc1ccc(-c2cc(=O)c3c(OC)c(OC)c(OC)cc3o2)cc1OC [sinensetin] | inhibit the proliferation of endothelial cells |
